Results reported in PubChem BioAssay AID1259411 (Chemical Carcinogenesis Research Information System (CCRIS), 2018).
Activity calls are given as the source filed them. No rule for the calls is given here.

Test system: rodent carcinogenicity bioassays, tumor incidence
Assay: CCRIS carcinogenicity studies
From the text: The CCRIS database contains chemical records with carcinogenicity, mutagenicity, tumor promotion, and tumor inhibition test results. It was developed by the National Cancer Institute (NCI). Data are derived from studies cited in primary journals, current awareness tools, NCI reports, and other sources. Test results have been reviewed by experts in carcinogenesis and mutagenesis.
CCRIS provides historical information from the years 1985 - 2011. It is no longer updated.
This is an archive assay for CCRIS carcinogenicity studies.

With [O]=[Cd] the carcinogen call (Species: HAMSTER, Strain/Sex: SYRIAN/MALE, Route: INHALATION, Dose: 0, 10 UG/M3 19 HR/D 5 D/WK FOR 65 WK FOR A TOTAL CADMIUM DOSE OF 0, 63 MG/M3 (STUDY DURATION: 113 WK), Dose: 0, 10 UG/M3 19 HR/D 5 D/WK FOR 65 WK FOR A TOTAL CADMIUM DOSE OF 0, 63 MG/M3 (STUDY DURATION: 113 WK)) was “inactive; negative”, the carcinogen call (Species: HAMSTER, Strain/Sex: SYRIAN/MALE, Route: INHALATION, Dose: 0, 90 UG/M3 8 HR/D 5 D/WK FOR 65 WK FOR A TOTAL CADMIUM DOSE OF 0, 216 MG/M3 (STUDY DURATION: 113 WK), Dose: 0, 90 UG/M3 8 HR/D 5 D/WK FOR 65 WK FOR A TOTAL CADMIUM DOSE OF 0, 216 MG/M3 (STUDY DURATION: 113 WK)) was “inactive; negative” and the carcinogen call (Species: HAMSTER, Strain/Sex: SYRIAN/MALE, Route: INHALATION, Dose: 0, 270 UG/M3 8 HR/D 5 D/WK FOR 53 WK FOR A TOTAL CADMIUM DOSE OF 0, 522 MG/M3 (STUDY DURATION: 70 WK), Dose: 0, 270 UG/M3 8 HR/D 5 D/WK FOR 53 WK FOR A TOTAL CADMIUM DOSE OF 0, 522 MG/M3 (STUDY DURATION: 70 WK)) was “inactive; negative”. For the same compound, the carcinogen call (Species: RAT, Strain/Sex: FEMALE, Route: SUBCUTANEOUS, Dose: 25 MG ONCE, Tumor Site: Type of Lesion: INJECTION SITE: SARCOMA) was “active; positive”, the carcinogen call (Species: RAT, Strain/Sex: FEMALE, Route: SUBCUTANEOUS, Dose: 25 MG, SINGLE DOSE, Tumor Site: Type of Lesion: INJECTION SITE) was “active; positive” and the carcinogen call (Species: RAT, Strain/Sex: WISTAR/FEMALE, Route: INHALATION, Dose: 0, 30 UG/M3 8 HR/D,5D/WK FOR 18 MO (STUDY DURATION: 18 MO)) was “inactive; negative”. The carcinogen call (Species: RAT, Strain/Sex: WISTAR/FEMALE, Route: INHALATION, Dose: 0, 30 UG/M3 CADMIUM OXIDE DUST 22 HR/D 7 D/WK FOR 18 MO (STUDY DURATION: 31 MO), Tumor Site: Type of Lesion: LUNG: TUMOR) was “active; positive”, the carcinogen call (Species: RAT, Strain/Sex: WISTAR/FEMALE, Route: INHALATION, Dose: 0, 30 UG/M3 DUST 22 HR/D 7 D/WK FOR 18 MO (STUDY DURATION: 31 MO), Tumor Site: Type of Lesion: LUNG: ALVEOLAR/BRONCHIOLAR ADENOMA, ADENOCARCINOMA, SQUAMOUS CELL CARCINOMA) was “active; positive” and the carcinogen call (Species: RAT, Strain/Sex: WISTAR/FEMALE, Route: INHALATION, Dose: 0, 30 UG/M3 OF CADMIUM OXIDE DUST 22 HR/D 7 D/WK FOR 18 MO (STUDY DURATION: 31 MO), Tumor Site: Type of Lesion: LUNG: ALVEOLAR/BRONCHIOLAR ADENOMA, ADENOCARCINOMA, SQUAMOUS CELL CARCINOMA) was “active; positive”. For the same compound, the carcinogen call (Species: RAT, Strain/Sex: WISTAR/FEMALE, Route: INHALATION, Dose: 0, 90 UG/M3 CADMIUM OXIDE DUST 22 HR/D 7 D/WK FOR 4 MO (STUDY DURATION: 31 MO), Tumor Site: Type of Lesion: LUNG: TUMOR) was “active; positive”, the carcinogen call (Species: RAT, Strain/Sex: WISTAR/FEMALE, Route: INHALATION, Dose: 0, 90 UG/M3 CADMIUM OXIDE DUST DISCONTINOUS EXPOSURE FOR 40 HR/WK FOR 6 MO (STUDY DURATION: 31 MO), Tumor Site: Type of Lesion: LUNG: TUMOR) was “active; positive” and the carcinogen call (Species: RAT, Strain/Sex: WISTAR/FEMALE, Route: INHALATION, Dose: 0, 90 UG/M3 DUST 8 HR/D 5 D/WK FOR 6 MO (STUDY DURATION: 31 MO), Tumor Site: Type of Lesion: LUNG: ADENOCARCINOMA, SQUAMOUS CELL CARCINOMA) was “active; positive”. For the same compound, the carcinogen call (Species: RAT, Strain/Sex: WISTAR/FEMALE, Route: INHALATION, Dose: 0, 90 UG/M3 DUST 22 HR/D 7 D/WK FOR 11 MO (STUDY DURATION: 31 MO), Tumor Site: Type of Lesion: LUNG: ALVEOLAR/BRONCHIOLAR ADENOMA, ADENOCARCINOMA, SQUAMOUS CELL CARCINOMA) was “active; positive”, the carcinogen call (Species: RAT, Strain/Sex: WISTAR/FEMALE, Route: INHALATION, Dose: 0, 90 UG/M3 OF CADMIUM OXIDE DUST 22 HR/D 7 D/WK FOR 11 MO (STUDY DURATION: 31 MO), Tumor Site: Type of Lesion: LUNG: ALVEOLAR/BRONCHIOLAR ADENOMA, ADENOCARCINOMA, SQUAMOUS CELL CARCINOMA) was “active; positive” and the carcinogen call (Species: RAT, Strain/Sex: WISTAR/FEMALE, Route: INHALATION, Dose: 0, 90 UG/M3 OF CADMIUM OXIDE DUST 40 HR/WK FOR 6 MO (STUDY DURATION: 31 MO)) was “inactive; negative”. For the same compound, the carcinogen call (Species: RAT, Strain/Sex: WISTAR/MALE, Route: INHALATION, Dose: 0, 10 UG/M3 CADMIUM OXIDE FUME 22 HR/D 7 D/WK FOR 18 MO (STUDY DURATION: 31 MO)) was “inactive; negative”, the carcinogen call (Species: RAT, Strain/Sex: WISTAR/MALE, Route: INHALATION, Dose: 0, 10 UG/M3 FUME 22 HR/D 7 D/WK FOR 18 MO (STUDY DURATION: 31 MO)) was “inactive; negative” and the carcinogen call (Species: RAT, Strain/Sex: WISTAR/MALE, Route: INHALATION, Dose: 0, 10 UG/M3 OF CADMIUM OXIDE FUME 22 HR/D 7 D/WK FOR 18 MO (STUDY DURATION: 31 MO)) was “inactive; negative”. For the same compound, the carcinogen call (Species: RAT, Strain/Sex: WISTAR/MALE, Route: INHALATION, Dose: 0, 30 UG/M3 CADMIUM OXIDE DUST 22 HR/D 7 D/WK FOR 18 MO (STUDY DURATION: 31 MO), Tumor Site: Type of Lesion: LUNG: ADENOMA OR ADENOCARCINOMA OR SQUAMOUS CELL TUMOR OR ADENOSQUAMOUS CARCINOMA) was “active; positive”, the carcinogen call (Species: RAT, Strain/Sex: WISTAR/MALE, Route: INHALATION, Dose: 0, 30 UG/M3 CADMIUM OXIDE DUST 22 HR/D 7 D/WK FOR 18 MO (STUDY DURATION: 31 MO), Tumor Site: Type of Lesion: LUNG: TUMOR) was “active; positive” and the carcinogen call (Species: RAT, Strain/Sex: WISTAR/MALE, Route: INHALATION, Dose: 0, 30 UG/M3 CADMIUM OXIDE DUST 22 HR/D 7 D/WK FOR 18 MO ADMINISTERED TO RATS MAINTAINED ON ZINC REDUCED (24 PPM) DIET (S, Tumor Site: Type of Lesion: LUNG: TUMOR) was “active; positive”. The carcinogen call (Species: RAT, Strain/Sex: WISTAR/MALE, Route: INHALATION, Dose: 0, 30 UG/M3 CADMIUM OXIDE FUME 22 HR/D 7 D/WK FOR 18 MO (STUDY DURATION: 31 MO), Tumor Site: Type of Lesion: LUNG: TUMOR) was “active; positive”, the carcinogen call (Species: RAT, Strain/Sex: WISTAR/MALE, Route: INHALATION, Dose: 0, 30 UG/M3 DUST 22 HR/D 7 D/WK FOR 18 MO (STUDY DURATION: 31 MO), Tumor Site: Type of Lesion: LUNG: ALVEOLAR/BRONCHIOLAR ADENOMA, ADENOCARCINOMA, SQUAMOUS CELL CARCINOMA) was “active; positive” and the carcinogen call (Species: RAT, Strain/Sex: WISTAR/MALE, Route: INHALATION, Dose: 0, 30 UG/M3 DUST 22 HR/D 7 D/WK FOR 18 MO MAINTAINED ON ZN REDUCED DIET (24 PPM) FOR STUDY DURATION (STUDY DURATION: 29, Tumor Site: Type of Lesion: LUNG: ALVEOLAR/BRONCHIOLAR ADENOMA, ADENOCARCINOMA, SQUAMOUS CELL CARCINOMA) was “active; positive”. The carcinogen call (Species: RAT, Strain/Sex: WISTAR/MALE, Route: INHALATION, Dose: 0, 30 UG/M3 FUME 22 HR/D 7 D/WK FOR 18 MO (STUDY DURATION: 31 MO), Tumor Site: Type of Lesion: LUNG: ALVEOLAR/BRONCHIOLAR ADENOMA, ADENOCARCINOMA) was “active; positive”, the carcinogen call (Species: RAT, Strain/Sex: WISTAR/MALE, Route: INHALATION, Dose: 0, 30 UG/M3 OF CADMIUM OXIDE DUST 22 HR/D 7 D/WK FOR 18 MO (STUDY DURATION: 29 MO), Tumor Site: Type of Lesion: LUNG: ALVEOLAR/BRONCHIOLAR ADENOMA, ADENOCARCINOMA) was “active; positive” and the carcinogen call (Species: RAT, Strain/Sex: WISTAR/MALE, Route: INHALATION, Dose: 0, 30 UG/M3 OF CADMIUM OXIDE DUST 22 HR/D 7 D/WK FOR 18 MO (STUDY DURATION: 31 MO), Tumor Site: Type of Lesion: LUNG: ALVEOLAR/BRONCHIOLAR ADENOMA, ADENOCARCINOMA, SQUAMOUS CELL CARCINOMA) was “active; positive”. For the same compound, the carcinogen call (Species: RAT, Strain/Sex: WISTAR/MALE, Route: INHALATION, Dose: 0, 30 UG/M3 OF CADMIUM OXIDE FUME 22 HR/D 7 D/WK FOR 18 MO (STUDY DURATION: 31 MO)) was “inactive; negative”, the carcinogen call (Species: RAT, Strain/Sex: WISTAR/MALE, Route: INHALATION, Dose: 0, 90 UG/M3, 8 HR/D, 5D/WK FOR 7.1 MO (STUDY DURATION: 7.1 MO)) was “inactive; negative” and the carcinogen call (Species: RAT, Strain/Sex: WISTAR/MALE, Route: INHALATION, Dose: 0, 90 UG/M3 CADMIUM OXIDE DUST 22 HR/D 7 D/WK FOR 7 MO (STUDY DURATION: 31 MO), Tumor Site: Type of Lesion: LUNG: ADENOMA OR ADENOCARCINOMA OR SQUAMOUS CELL TUMOR) was “active; positive”. For the same compound, the carcinogen call (Species: RAT, Strain/Sex: WISTAR/MALE, Route: INHALATION, Dose: 0, 90 UG/M3 CADMIUM OXIDE DUST 22 HR/D 7 D/WK FOR 7 MO (STUDY DURATION: 31 MO), Tumor Site: Type of Lesion: LUNG: TUMOR) was “active; positive”, the carcinogen call (Species: RAT, Strain/Sex: WISTAR/MALE, Route: INHALATION, Dose: 0, 90 UG/M3 CADMIUM OXIDE DUST DISCONTINOUS EXPOSURE FOR 40 HR/WK FOR 6 MO (STUDY DURATION: 31 MO), Tumor Site: Type of Lesion: LUNG: TUMOR) was “active; positive” and the carcinogen call (Species: RAT, Strain/Sex: WISTAR/MALE, Route: INHALATION, Dose: 0, 90 UG/M3 DUST 8 HR/D 5 D/WK FOR 6 MO (STUDY DURATION: 31 MO), Tumor Site: Type of Lesion: LUNG: ALVEOLAR/BRONCHIOLAR ADENOMA, ADENOCARCINOMA, SQUAMOUS CELL CARCINOMA) was “active; positive”. The carcinogen call (Species: RAT, Strain/Sex: WISTAR/MALE, Route: INHALATION, Dose: 0, 90 UG/M3 DUST 22 HR/D 7 D/WK FOR 7 MO (STUDY DURATION: 31 MO), Tumor Site: Type of Lesion: LUNG: ALVEOLAR/BRONCHIOLAR ADENOMA, ADENOCARCINOMA) was “active; positive”, the carcinogen call (Species: RAT, Strain/Sex: WISTAR/MALE, Route: INHALATION, Dose: 0, 90 UG/M3 OF CADMIUM OXIDE DUST 22 HR/D 7 D/WK FOR 7 MO (STUDY DURATION: 31 MO), Tumor Site: Type of Lesion: LUNG: ALVEOLAR/BRONCHIOLAR ADENOMA, ADENOCARCINOMA) was “active; positive” and the carcinogen call (Species: RAT, Strain/Sex: WISTAR/MALE, Route: INHALATION, Dose: 0, 90 UG/M3 OF CADMIUM OXIDE DUST 40 HR/WK FOR 6 MO (STUDY DURATION: 31 MO)) was “inactive; negative”.
